# Data published in patent publication US20180000085A1, “USE OF PICOLINAMIDE COMPOUNDS WITH FUNGICIDAL ACTIVITY” (DOW AGROSCIENCES LLC, priority 2014, published 2018).
# Experiments:
# [1] = system: Zymoseptoria tritici; assay: Leaf blotch of wheat (SEPTTR) disease control on wheat seedlings; format: in vivo; set-up: key to SEPTTR 1DP, HV activity at 100 ppm (% control rating) / SEPTTR 3DC, HV activity at 100 ppm (% control rating) / SEPTTR disease control, 1DP / SEPTTR disease control, 3DC / SEPTTR 1DP disease control rating, HV activity / SEPTTR 3DC disease control rating, HV activity / SEPTTR 3DC, LV activity at 125.1 g/H (% Control rating) / SEPTTR 1DP, LV activity at 125.1 g/H (% Control rating) / SEPTTR 1DP disease control rating, LV activity at 125.1 g/H / SEPTTR 3DC disease control rating, LV activity at 125.1 g/H / SEPTTR 3DC disease control rating, HV activity at 100 ppm / SEPTTR 1DP disease control rating, HV activity at 100 ppm / HV activity at 100 ppm SEPTTR 3DC (disease control rating) / HV activity at 100 ppm SEPTTR 1DP (disease control rating) / LV activity at 125.1 g/H SEPTTR 1DP (disease control rating) / LV activity at 125.1 g/H SEPTTR 3DC (disease control rating): A: > 80; B: ≤ 80; C: Not Tested; D: No Activity Observed in the Reported Assay; conditions: for SEPTTR 1DP, LV activity at 125.1 g/H (% Control rating) / SEPTTR 3DC, LV activity at 125.1 g/H (% Control rating): low volume application; for SEPTTR 1DP, LV activity at 125.1 g/H (% Control rating) / SEPTTR 1DP, HV activity at 100 ppm (% control rating): 1 Day Protectant; for SEPTTR 3DC, LV activity at 125.1 g/H (% Control rating) / SEPTTR 3DC, HV activity at 100 ppm (% control rating): 3 Day Curative; for SEPTTR 1DP, HV activity at 100 ppm (% control rating) / SEPTTR 3DC, HV activity at 100 ppm (% control rating): HV application
# [2] = system: Puccinia triticina; assay: Wheat brown rust (PUCCRT) disease control on wheat seedlings; format: in vivo; set-up: key to PUCCRT 3DC, HV activity at 100 ppm (% control rating) / PUCCRT disease control, 3DC / PUCCRT 1DP disease control rating, HV activity / PUCCRT 3DC disease control rating, HV activity / PUCCRT 3DC, LV activity at 125.1 g/H (% Control rating) / PUCCRT 1DP, LV activity at 125.1 g/H (% Control rating) / PUCCRT 3DC disease control rating, LV activity at 125.1 g/H / PUCCRT 1DP disease control rating, LV activity at 125.1 g/H / PUCCRT 3DC disease control rating, HV activity at 100 ppm / PUCCRT 1DP disease control rating, HV activity at 100 ppm / HV activity at 100 ppm PUCCRT 3DC (disease control rating) / LV activity at 125.1 g/H PUCCRT 1DP (disease control rating) / LV activity at 125.1 g/H PUCCRT 3DC (disease control rating): A: > 80; B: ≤ 80; C: Not Tested; D: No Activity Observed in the Reported Assay; conditions: for PUCCRT 1DP, LV activity at 125.1 g/H (% Control rating) / PUCCRT 3DC, LV activity at 125.1 g/H (% Control rating): low volume application; for PUCCRT 1DP, LV activity at 125.1 g/H (% Control rating) / PUCCRT 1DP, HV activity at 100 ppm (% control rating): 1 Day Protectant; for PUCCRT 3DC, LV activity at 125.1 g/H (% Control rating) / PUCCRT 3DC, HV activity at 100 ppm (% control rating): 3 Day Curative; for PUCCRT 1DP, HV activity at 100 ppm (% control rating) / PUCCRT 3DC, HV activity at 100 ppm (% control rating): HV application
Compound,"SEPTTR 1DP, LV activity at 125.1 g/H (% Control rating) [1]","SEPTTR 3DC, LV activity at 125.1 g/H (% Control rating) [1]","PUCCRT 1DP, LV activity at 125.1 g/H (% Control rating) [2]","PUCCRT 3DC, LV activity at 125.1 g/H (% Control rating) [2]","SEPTTR 1DP, HV activity at 100 ppm (% control rating) [1]","SEPTTR 3DC, HV activity at 100 ppm (% control rating) [1]","PUCCRT 1DP, HV activity at 100 ppm (% control rating) [2]","PUCCRT 3DC, HV activity at 100 ppm (% control rating) [2]"
COc1ccnc(C(=O)N[C@@H](C)C(=O)O[C@@H](C)[C@H](Oc2cc(F)cc(Cl)c2)C(C)C)c1OC(C)=O [Cmpd 628],B (≤ 80),A (> 80),A (> 80),A (> 80),,,,
COc1ccnc(C(=O)N[C@@H](C)C(=O)O[C@@H](C)[C@H](Oc2ccc(C(F)(F)F)cc2)C(C)C)c1OC(C)=O [Cmpd 629],B (≤ 80),B (≤ 80),A (> 80),A (> 80),,,,
CC[C@H](C)[C@H](NC(=O)c1nccc(OC)c1OC(C)=O)C(=O)O[C@@H](C)[C@H](Oc1cc(F)ccc1F)C(C)C [Cmpd 630],D,D,A (> 80),A (> 80),,,,
COc1ccnc(C(=O)N[C@@H](C)C(=O)O[C@@H](C)[C@H](Oc2cccc3ccccc23)C(C)C)c1OC(C)=O [Cmpd 631],B (≤ 80),D,A (> 80),A (> 80),,,,
COc1ccnc(C(=O)N[C@@H](C)C(=O)O[C@@H](C)[C@H](Oc2ccc3ccccc3c2)C(C)C)c1OC(C)=O [Cmpd 632],D,D,A (> 80),A (> 80),,,,
COc1ccnc(C(=O)N[C@H](C(=O)O[C@@H](C)[C@H](Oc2ccc3ccccc3c2)C(C)C)C(C)C)c1OCOC(C)=O [Cmpd 633],B (≤ 80),A (> 80),A (> 80),A (> 80),,,,
COc1ccnc(C(=O)N[C@@H](C)C(=O)O[C@@H](C)[C@H](Oc2ccc(Cl)cc2Cl)c2ccccc2)c1OCOC(C)=O [Cmpd 634],A (> 80),A (> 80),A (> 80),B (≤ 80),,,,
COc1ccnc(C(=O)N[C@@H](C)C(=O)O[C@@H](C)[C@H](Oc2ccc(Cl)cc2Cl)c2ccccc2)c1OC(C)=O [Cmpd 635],A (> 80),A (> 80),A (> 80),B (≤ 80),,,,
COc1ccnc(C(=O)N[C@@H](C)C(=O)O[C@@H](C)[C@H](Oc2ccc(Cl)cc2)c2ccccc2)c1OCOC(C)=O [Cmpd 636],A (> 80),A (> 80),A (> 80),A (> 80),,,,
COc1ccnc(C(=O)N[C@@H](C)C(=O)O[C@@H](C)[C@H](Oc2cccc(Cl)c2)c2ccccc2)c1OC(C)=O [Cmpd 638],A (> 80),A (> 80),A (> 80),B (≤ 80),,,,
COc1ccnc(C(=O)N[C@@H](C)C(=O)O[C@@H](C)[C@H](Oc2cc(F)cc(Cl)c2)c2ccccc2)c1OCOC(C)=O [Cmpd 641],A (> 80),A (> 80),A (> 80),B (≤ 80),,,,
CC[C@H](NC(=O)c1nccc(OC)c1OCOC(C)=O)C(=O)O[C@@H](C)[C@H](Oc1cc(F)cc(Cl)c1)c1ccccc1 [Cmpd 643],A (> 80),A (> 80),A (> 80),B (≤ 80),,,,
CC[C@H](NC(=O)c1nccc(OC)c1OC(C)=O)C(=O)O[C@@H](C)[C@H](Oc1cc(F)cc(Cl)c1)c1ccccc1 [Cmpd 644],A (> 80),A (> 80),A (> 80),B (≤ 80),,,,
CCC(CC)[C@@H](Oc1cccc(F)c1)[C@H](C)OC(=O)[C@@H](NC(=O)c1nccc(OC)c1OCOC(C)=O)C(C)C [Cmpd 645],D,A (> 80),A (> 80),A (> 80),A (> 80),A (> 80),A (> 80),A (> 80)
CCC(CC)[C@@H](Oc1ccc(F)cc1)[C@H](C)OC(=O)[C@@H](NC(=O)c1nccc(OC)c1OCOC(C)=O)C(C)C [Cmpd 646],B (≤ 80),B (≤ 80),A (> 80),A (> 80),A (> 80),A (> 80),A (> 80),A (> 80)
CCC(CC)[C@@H](Oc1cccc(Cl)c1)[C@H](C)OC(=O)[C@@H](NC(=O)c1nccc(OC)c1OCOC(C)=O)C(C)C [Cmpd 647],A (> 80),B (≤ 80),A (> 80),B (≤ 80),,,,
CCC(CC)[C@@H](Oc1ccc(Cl)cc1)[C@H](C)OC(=O)[C@@H](NC(=O)c1nccc(OC)c1OCOC(C)=O)C(C)C [Cmpd 648],B (≤ 80),A (> 80),A (> 80),B (≤ 80),,,,
CCC(CC)[C@@H](Oc1ccc(Cl)cc1Cl)[C@H](C)OC(=O)[C@@H](NC(=O)c1nccc(OC)c1OCOC(C)=O)C(C)C [Cmpd 649],D,D,A (> 80),B (≤ 80),,,,
CCC(CC)[C@@H](Oc1cc(F)ccc1F)[C@H](C)OC(=O)[C@@H](NC(=O)c1nccc(OC)c1OCOC(C)=O)C(C)C [Cmpd 650],D,B (≤ 80),A (> 80),B (≤ 80),,,,
CCC(CC)[C@@H](Oc1cc(F)cc(Cl)c1)[C@H](C)OC(=O)[C@@H](NC(=O)c1nccc(OC)c1OCOC(C)=O)C(C)C [Cmpd 651],A (> 80),A (> 80),A (> 80),B (≤ 80),,,,
CCC(CC)[C@@H](Oc1ccccc1Cl)[C@H](C)OC(=O)[C@@H](NC(=O)c1nccc(OC)c1OCOC(C)=O)C(C)C [Cmpd 652],B (≤ 80),B (≤ 80),A (> 80),B (≤ 80),,,,
CCC(CC)[C@@H](Oc1ccc(C(F)(F)F)cc1)[C@H](C)OC(=O)[C@@H](NC(=O)c1nccc(OC)c1OCOC(C)=O)C(C)C [Cmpd 653],D,B (≤ 80),A (> 80),B (≤ 80),,,,
CCC(CC)[C@@H](Oc1cccc(-c2ccccc2)c1)[C@H](C)OC(=O)[C@@H](NC(=O)c1nccc(OC)c1OCOC(C)=O)C(C)C [Cmpd 654],B (≤ 80),D,A (> 80),D,,,,
